Data as given in patent US20070032529A1, “Pyrazole compounds and their use as antidiabetes agents” (Japan Tobacco Inc., priority 2005, published 2007).

How the values were obtained:
[1] = molecular target: T1, recombinant human liver glycogen phosphorylase (Homo sapiens, UniProt P06737); experiment: Measuring liver glycogen phosphorylase activity (forward reaction system, NADPH absorbance at 340 nm); format: biochemical
T1 construct: made in house; host or cells: Sf9 insect cells (crude homogenate, diluted, used as the enzyme solution)
T1 sequence (P06737 1-847): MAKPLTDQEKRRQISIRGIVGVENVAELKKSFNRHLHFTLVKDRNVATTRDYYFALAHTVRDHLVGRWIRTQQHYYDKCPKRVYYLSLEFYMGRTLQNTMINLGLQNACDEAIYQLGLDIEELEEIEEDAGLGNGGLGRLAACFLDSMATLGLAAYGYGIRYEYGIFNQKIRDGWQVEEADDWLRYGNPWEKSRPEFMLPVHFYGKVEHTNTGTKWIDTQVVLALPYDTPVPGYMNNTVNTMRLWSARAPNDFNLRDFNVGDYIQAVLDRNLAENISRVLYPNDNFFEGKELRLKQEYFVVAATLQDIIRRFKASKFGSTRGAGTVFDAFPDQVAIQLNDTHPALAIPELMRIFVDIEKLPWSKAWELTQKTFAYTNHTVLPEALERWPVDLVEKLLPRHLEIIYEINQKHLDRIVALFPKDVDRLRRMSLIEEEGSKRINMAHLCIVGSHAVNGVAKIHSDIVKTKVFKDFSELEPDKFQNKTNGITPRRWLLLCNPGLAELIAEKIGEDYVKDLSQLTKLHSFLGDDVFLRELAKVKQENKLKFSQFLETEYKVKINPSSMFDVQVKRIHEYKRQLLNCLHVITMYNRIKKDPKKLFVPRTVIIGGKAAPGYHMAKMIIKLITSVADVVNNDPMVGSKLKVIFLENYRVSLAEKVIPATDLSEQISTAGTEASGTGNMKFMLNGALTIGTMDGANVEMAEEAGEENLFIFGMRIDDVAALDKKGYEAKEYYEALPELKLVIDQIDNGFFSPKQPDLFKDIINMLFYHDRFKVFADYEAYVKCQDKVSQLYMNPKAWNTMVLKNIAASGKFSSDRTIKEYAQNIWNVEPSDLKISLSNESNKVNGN
In short: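 Sf9 homogenate expressing the enzyme, in pH 6.8 BES/EDTA, with glycogen and phosphate substrate plus glucose, coupled via phosphoglucomutase/G6PDH to NADPH formation. A340 change over 75 min at room temperature, blank-corrected; IC50 linearly interpolated between the two concentrations bracketing 50% inhibition versus 1% DMSO control.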

[2] = system: db/db mice; experiment: Measuring blood plasma glucose concentration in db/db mice (hypoglycemic effect); format: in vivo; design: key: ++: compounds exhibiting statistically significant hypoglycemic effect at a dose of 10 mg/kg or less; +: compounds exhibiting not significant but obvious hypoglycemic effect at a dose of 10 mg/kg; settings: for vivo (hypoglycemic effect in db/db mice): db/db mice fasted 4 h, oral administration, plasma glucose 1 and 3 hours after administration, dose 10 mg/kg or less, Dunnett test vs solvent; for vivo (hypoglycemic effect): db/db mice, blood plasma glucose, dose of 10 mg/kg or less
In short: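 db/db mice aged 9-18 weeks, grouped 5 or 8 per group matched on plasma glucose, fasted 4 h, then dosed orally with compound or 0.5% methylcellulose vehicle. Plasma glucose measured 1 and 3 h post-dose; each timepoint compared against vehicle by Dunnett test.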

[3] = enzyme inhibitory activity with respect to liver glycogen phosphorylase, class symbols
[4] = human liver glycogen phosphorylase, class symbol

SMILES: O=C(O)c1cccc(CNC(=O)c2cc(NC(=O)c3cc(F)c(F)cc3Cl)[nH]n2)c1 [Example 3-39]
- IC50 [1, 3]: < 0.1 µM
- vivo (hypoglycemic effect in db/db mice) [2]: +

SMILES: O=C(NCc1ccc(C(F)(F)F)nc1)c1cc(NC(=O)c2cc(F)c(F)cc2Cl)[nH]n1 [Example 3-40]
- IC50 [1, 3]: < 0.1 µM
- vivo (hypoglycemic effect in db/db mice) [2]: ++

SMILES: CCOc1ncccc1CNC(=O)c1cc(NC(=O)c2cc(F)c(F)cc2Cl)[nH]n1 [Example 3-41]
- IC50 [1, 3]: < 0.1 µM
- vivo (hypoglycemic effect in db/db mice) [2]: ++

SMILES: COc1ccnc(CNC(=O)c2cc(NC(=O)c3cc(F)c(F)cc3Cl)[nH]n2)c1 [Example 3-45]
- IC50 [1, 3]: < 0.1 µM
- vivo (hypoglycemic effect in db/db mice) [2]: +

SMILES: COc1ccc(CNC(=O)c2cc(NC(=O)c3cc(F)c(F)cc3Cl)[nH]n2)c(OC)n1 [Example 3-46]
- IC50 [1, 3]: < 0.1 µM
- vivo (hypoglycemic effect in db/db mice) [2]: +

SMILES: CN(C(=O)c1cc(NC(=O)c2cc(F)c(F)cc2Cl)[nH]n1)c1ccc(C(=O)O)cc1 [Example 4-2, 5-(2-chloro-4,5-difluoro-benzoylamino)-1H-pyrazole-3-carboxylic acid (4-carboxyphenyl)-methyl-amide]
- IC50 [1, 3]: < 0.1 µM
- vivo (hypoglycemic effect in db/db mice) [2]: ++

SMILES: CCOC(=O)CN(C(=O)c1cc(NC(=O)c2cc(F)c(F)cc2Cl)[nH]n1)c1ccccc1 [Example 4-4]
- IC50 [1, 3]: < 0.1 µM
- vivo (hypoglycemic effect in db/db mice) [2]: +

SMILES: O=C(Nc1cc(C(=O)N(Cc2ccccc2)c2ccccc2)n[nH]1)c1cc(F)c(F)cc1Cl [Example 4-9]
- IC50 [1, 3]: < 0.1 µM
- vivo (hypoglycemic effect in db/db mice) [2]: +

SMILES: CCOCCN(C(=O)c1cc(NC(=O)c2cc(F)c(F)cc2Cl)[nH]n1)c1ccccc1 [Example 4-18]
- IC50 [1, 3]: < 0.1 µM
- vivo (hypoglycemic effect in db/db mice) [2]: +

SMILES: CCNC(=O)CN(C(=O)c1cc(NC(=O)c2cc(F)c(F)cc2Cl)[nH]n1)c1ccccc1 [Example 4-23]
- IC50 [1, 3]: < 0.1 µM
- vivo (hypoglycemic effect in db/db mice) [2]: +

SMILES: COCCN(C(=O)c1cc(NC(=O)c2cc(F)c(F)cc2Cl)[nH]n1)c1ccccc1 [Example 4-34]
- IC50 [1, 3]: < 0.1 µM
- vivo (hypoglycemic effect in db/db mice) [2]: +

SMILES: CCCCN(C(=O)c1cc(NC(=O)c2cc(F)c(F)cc2Cl)[nH]n1)c1ccc(C(=O)O)cc1 [Example 4-41]
- IC50 [1, 3]: < 0.1 µM
- vivo (hypoglycemic effect in db/db mice) [2]: +

SMILES: CCCCN(C(=O)c1cc(NC(=O)c2cc(F)c(F)cc2Cl)[nH]n1)c1ccc(CC(=O)O)cc1 [Example 4-46]
- IC50 [1, 3]: < 0.1 µM
- vivo (hypoglycemic effect in db/db mice) [2]: +

SMILES: COCCN(C(=O)c1cc(NC(=O)c2cc(F)c(F)cc2Cl)[nH]n1)c1ccc(C(=O)O)cc1 [Example 4-48]
- IC50 [1, 3]: < 0.1 µM
- vivo (hypoglycemic effect in db/db mice) [2]: ++

SMILES: COc1ccc(CNC(=O)c2cc(NC(=O)c3cc(F)c(F)cc3Cl)[nH]n2)cn1 [Example 5-1]
- IC50 [1, 3]: < 0.1 µM
- vivo (hypoglycemic effect in db/db mice) ([2]; 10 mg/kg): +

SMILES: COc1ccc(CNC(=O)c2cc(NC(=O)c3cc(F)c(F)cc3C)[nH]n2)cn1 [Example 5-2]
- IC50 [1, 3]: < 0.1 µM
- vivo (hypoglycemic effect in db/db mice) [2]: +

SMILES: O=C(NN1CCOCC1)c1cccc(CNC(=O)c2cc(NC(=O)c3cc(F)c(F)cc3Cl)[nH]n2)c1 [Example 5-12]
- IC50 [1, 3]: < 0.1 µM
- vivo (hypoglycemic effect in db/db mice) [2]: +

SMILES: O=C(NCCN1CCOCC1)c1cc(CNC(=O)c2cc(NC(=O)c3cc(F)c(F)cc3Cl)[nH]n2)ccn1 [Example 5-13]
- IC50 [1, 3]: < 0.1 µM
- vivo (hypoglycemic effect in db/db mice) [2]: +

SMILES: O=C(NCc1ccnc(C(=O)NN2CCOCC2)c1)c1cc(NC(=O)c2cc(F)c(F)cc2Cl)[nH]n1 [Example 5-14]
- IC50 [1, 3]: < 0.1 µM
- vivo (hypoglycemic effect in db/db mice) [2]: +

SMILES: COc1ccc(CNC(=O)c2cc(NC(=O)c3cc(F)c(F)cc3Cl)[nH]n2)cn1.CS(=O)(=O)O [Example 5-15]
- IC50 [1, 3]: < 0.1 µM
- vivo (hypoglycemic effect in db/db mice) [2]: +

SMILES: COc1ccc(CNC(=O)c2cc(NC(=O)c3cc(F)c(F)cc3Cl)[nH]n2)cn1 [Example 5-16]
- IC50 [1, 3]: < 0.1 µM
- vivo (hypoglycemic effect in db/db mice) ([2]; 10 mg/kg): +

SMILES: O=C(NCc1ccc(N2CCCCC2)nc1)c1cc(NC(=O)c2cc(F)c(F)cc2Cl)[nH]n1 [Example 5-24]
- IC50 [1, 3]: < 0.1 µM
- vivo (hypoglycemic effect in db/db mice) [2]: ++

SMILES: Cl.O=C(NCc1ccc(N2CCOCC2)nc1)c1cc(NC(=O)c2cc(F)c(F)cc2Cl)[nH]n1 [Example 5-25]
- IC50 [1, 3]: < 0.1 µM
- vivo (hypoglycemic effect in db/db mice) [2]: ++

SMILES: CN(C)c1ccc(CNC(=O)c2cc(NC(=O)c3cc(F)c(F)cc3Cl)[nH]n2)cn1 [Example 5-27]
- IC50 [1, 3]: < 0.1 µM
- vivo (hypoglycemic effect in db/db mice) ([2]; 10 mg/kg): ++

SMILES: CCN(CC)c1ccc(CNC(=O)c2cc(NC(=O)c3cc(F)c(F)cc3Cl)[nH]n2)cn1 [Example 5-29]
- IC50 [1, 3]: < 0.1 µM
- vivo (hypoglycemic effect in db/db mice) [2]: ++

SMILES: CN(C)c1nc(Cl)ccc1CNC(=O)c1cc(NC(=O)c2cc(F)c(F)cc2Cl)[nH]n1 [Example 5-30]
- IC50 [1, 3]: < 0.1 µM
- vivo (hypoglycemic effect in db/db mice) [2]: +

SMILES: Cc1ncsc1CNC(=O)c1cc(NC(=O)c2cc(F)c(F)cc2Cl)[nH]n1.Cl [Example 5-32]
- IC50 [1, 3]: < 0.1 µM
- vivo (hypoglycemic effect in db/db mice) [2]: +

SMILES: Cc1nc(C)c(CNC(=O)c2cc(NC(=O)c3cc(F)c(F)cc3Cl)[nH]n2)s1.Cl [Example 5-33]
- IC50 [1, 3]: < 0.1 µM
- vivo (hypoglycemic effect in db/db mice) [2]: +

SMILES: Cc1cnc(CNC(=O)c2cc(NC(=O)c3cc(F)c(F)cc3Cl)[nH]n2)cn1 [Example 5-35]
- IC50 [1, 3]: < 0.1 µM
- vivo (hypoglycemic effect in db/db mice) [2]: +

SMILES: O=C(NCc1ccc(N2CCCC2)nc1)c1cc(NC(=O)c2cc(F)c(F)cc2Cl)[nH]n1 [Example 5-41]
- IC50 [1, 3]: < 0.1 µM
- vivo (hypoglycemic effect in db/db mice) [2]: +

SMILES: CN(C(=O)c1cc(NC(=O)c2cc(F)c(F)cc2Cl)[nH]n1)c1ccc(-c2nc(=O)o[nH]2)cc1 [Example 6-12]
- IC50 [1, 4]: < 0.1 µM
- vivo (hypoglycemic effect) [2]: +

SMILES: CN(C(=O)c1cc(NC(=O)c2cc(F)c(F)cc2Cl)[nH]n1)c1ccc(-c2nsc(=O)[nH]2)cc1 [Example 6-16]
- IC50 [1, 4]: < 0.1 µM
- vivo (hypoglycemic effect) [2]: +

SMILES: CC(OC(=O)OC1CCCCC1)OC(=O)c1ccc(N(C)C(=O)c2cc(NC(=O)c3cc(F)c(F)cc3Cl)[nH]n2)cc1 (stereo not drawn) [Example 6-17]
- inhibition at 0.1 µM ([1]; figure in brackets (100), read-out: IC50: % value given with (100)): 9.8%
- vivo (hypoglycemic effect) [2]: +

SMILES: CN(C)C=Nc1ccccc1CNC(=O)c1cc(NC(=O)c2cc(F)c(F)cc2Cl)[nH]n1.Cl [Example 6-21]
- IC50 [1, 4]: < 0.1 µM
- vivo (hypoglycemic effect) [2]: ++

SMILES: CN(C)C=Nc1cccc(CNC(=O)c2cc(NC(=O)c3cc(F)c(F)cc3Cl)[nH]n2)c1.Cl [Example 6-22]
- IC50 [1, 4]: < 0.1 µM
- vivo (hypoglycemic effect) [2]: +

SMILES: CN(C)C=Nc1ccc(CNC(=O)c2cc(NC(=O)c3cc(F)c(F)cc3Cl)[nH]n2)cc1.Cl [Example 6-23]
- IC50 [1, 4]: < 0.1 µM
- vivo (hypoglycemic effect) [2]: +

SMILES: N#Cc1ccc(CNC(=O)c2cc(NC(=O)c3cc(F)c(F)cc3Cl)[nH]n2)cc1 [Example 6-33]
- IC50 [1, 4]: < 0.1 µM
- vivo (hypoglycemic effect) [2]: +

SMILES: Cl.Nc1cccc(F)c1CNC(=O)c1cc(NC(=O)c2cc(F)c(F)cc2Cl)[nH]n1 [Example 6-39]
- IC50 [1, 4]: < 0.1 µM
- vivo (hypoglycemic effect) [2]: +

SMILES: N#Cc1cc(CNC(=O)c2cc(NC(=O)c3cc(F)c(F)cc3Cl)[nH]n2)ccn1 [Example 6-48]
- IC50 [1, 4]: < 0.1 µM
- vivo (hypoglycemic effect) [2]: ++

SMILES: Cc1cc(F)c(F)cc1C(=O)Nc1cc(C(=O)N(C)c2ccc(C(=O)[O-])cc2)n[nH]1.[Na+] [Example 7-1]
- IC50 [1, 4]: < 0.1 µM
- vivo (hypoglycemic effect) [2]: +

SMILES: O=C(NCc1cccnc1)c1cc(NC(=O)c2cc(F)c(Cl)cc2Cl)[nH]n1 [Example 7-4]
- IC50 [1, 4]: < 0.1 µM
- vivo (hypoglycemic effect) [2]: ++

SMILES: Cc1cc(F)c(F)cc1C(=O)Nc1cc(C(=O)NCc2cccnc2)n[nH]1 [Example 7-10]
- IC50 [1, 4]: < 0.1 µM
- vivo (hypoglycemic effect) [2]: ++
